# Patent US20250381165A1, “Method of Use for Benzofuran Compounds” (Tampa Bay Research Institute, Inc., priority 2024, published 2025)
# How the values were obtained:
# [1] = tested on: murine splenocytes (B3Z activation); assay: B3Z activation by murine splenocytes (OVA or SIINFEKL); format: cell-based
# Procedure: Murine splenocytes were plated at a density of 2.5 or 5×10^4 cells/well (100 μL/well in 96 well plates) and cultured overnight in cRPMI. The cells were washed with DPBS and then treated for 1-24 h with the indicated concentrations of BzFβ or co-treated with the indicated concentrations of BzFβ and 0.5 mg/mL OVA, suspended in complete media. Cells treated with BzFβ only were pulsed with 0.5 nM SIINFEKL pulsed for 1 h. The cells were then co-cultured with equal number of B3Z cells at 37° C. for 19 h.
# [2] = tested on: DC2.4 cells (B3Z activation); assay: Pathway inhibitor studies in DC2.4/B3Z assay; format: cell-based, murine; conditions: DC2.4, 3 μg/mL BFA, 25 μg/mL BzFβ 6 h, 0.5 nM SIINFEKL
# Procedure: […]. The cytotoxicity of all inhibitors was assessed using CellTiter96 Aqueous One (Promega (Madison WI, USA); cat. no. G3580).
# . The cells were then washed 2× before addition of BzFβ. Cells exposed to the other inhibitors were incubated with an appropriate concentration of each inhibitor, seen in Table 1 in cDMEM at 37° C., 5% CO2. […]. Cells were then incubated for 6 h. Before B3Z addition the inhibitor and BzFβ were removed, and the cells washed with warm DPBS. If testing peptide presentation, the DC2.4 cells were pulsed with 0.5 nM […] for 1 h prior to being cocultured with B3Z.
# [3] = target: T1, MHCI/SIINFEKL complex on DC2.4 (Mus musculus, UniProt P01901); assay: Displacement of SIINFEKL from DC2.4 after peptide pulse; format: cell-based, murine; conditions: 25 μg/mL BzFβ after 1 h pulse 30 nM SIINFEKL; p<0.0001
# T1 construct: DC2.4 are a C57Bl/6 lineage murine cell line and as such they express MHC class I H-2Kb and H-2Db; endogenous in cells; host or cells: DC2.4 (murine dendritic cell line, from Dr. Kenneth Rock)
# T1 sequence (P01901 22-369): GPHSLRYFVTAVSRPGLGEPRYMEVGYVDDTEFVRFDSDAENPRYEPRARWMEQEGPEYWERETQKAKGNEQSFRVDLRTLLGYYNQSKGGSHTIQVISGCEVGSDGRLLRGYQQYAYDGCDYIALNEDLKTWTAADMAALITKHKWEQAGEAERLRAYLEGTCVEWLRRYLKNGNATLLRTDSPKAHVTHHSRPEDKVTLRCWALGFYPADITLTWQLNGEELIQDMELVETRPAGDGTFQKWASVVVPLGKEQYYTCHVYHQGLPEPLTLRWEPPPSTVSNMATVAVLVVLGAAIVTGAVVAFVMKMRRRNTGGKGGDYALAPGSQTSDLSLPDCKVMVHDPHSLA
# T1 sequence (P01887 21-119 partner): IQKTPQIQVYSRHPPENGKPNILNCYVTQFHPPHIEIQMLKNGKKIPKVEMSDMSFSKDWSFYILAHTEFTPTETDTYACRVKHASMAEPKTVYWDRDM
# [4] = tested on: CD45+/MHC II/CD11c+ splenocytes; assay: In vivo SIINFEKL loading, flow cytometry of splenocytes; parameters: species or system C57BL/6NCrl mice; conditions: CD45+/MHC II/CD11c+ population
# Procedure: Since the oral route of drug delivery is preferred, various doses of BzFβ (1, 2, 4 mg) were administered by oral gavage, immediately following an iv injection of 50 μg SIINFEKL peptide. One-hour post-treatment the blood and spleens from each mouse was collected. Blood samples were processed as described above. Spleens were collected in 4 mL of Hanks Balanced Salt Solution (HBSS) and converted to a single cell suspension using sterile pouches and a Steward Stomacher 80 Biomaster Blender (Fisher Scientific, cat. no. 14-285-27). The resulting cell suspension was pelleted and suspended in 4 mL freshly prepared red blood cell lysis buffer (150 mM NH4Cl, 10 mM NaHCO3, 0.1 mM EDTA in sterile distilled H2O) for 1-3 minutes. The splenocytes were pelleted and filtered through […] EASY strainer filters (USA Scientific, cat. no. 5654-2070). The cell count was determined using the MUSE cell viability kit (MCH600103) and MUSE Cell Analyzer (Luminex Corp, Austin TX).
# For peptide loading, splenocytes were prepared to 5×10^5/mL in cRPMI, then 100 μL of cells was added to wells of clear round-bottom 96 well tissue culture plates. […] Cells were gated based on live single-cell populations and positives were assessed using isotype controls and fluor-minus-one analysis when needed. Data were analyzed using the Attune NxT software or FlowJo versions 10.7 and 10.8.
smiles,measurement,setting,value
"O=C(O)/C=C/c1ccc2occc2c1 [BzFβ, (2E)-3-(1-benzofuran-5-yl)prop-2-enoic acid]","ability of splenocytes to activate B3Z, OVA","[1]; co-treatment 24 h, 0.5 mg/mL OVA",enhanced their ability to activate B3Z
same,"ability of splenocytes to activate B3Z, SIINFEKL","[1]; pre-treatment 24 h, then 0.5 nM SIINFEKL 1 h",also enhanced their ability to activate the B3Z
same,"doses with significant enhancement of B3Z activation, OVA","[1]; splenocytes, 0.5 mg/mL OVA, p<0.0001",> 6.25 µg/mL
same,"doses with significant enhancement of B3Z activation, SIINFEKL","[1]; splenocytes, 24 h, 0.5 nM SIINFEKL 1 h, p<0.0001",> 12.5 µg/mL
same,B3Z activation with SIINFEKL in presence of BFA,[2],unaffected
same,MHCI/SIINFEKL complex staining versus untreated cells,[3],significantly reduced
same,cells co-expressing MHCI bound SIINFEKL,[4],significantly more of these cells
